This note sets out measurements from patent US9303069B2, “Peptides for treating cancer” (University of Mississippi Medical Center, priority 2014, dated 2016).

One assay concerns BRCA1-IRIS. Put plainly: BRCA1-IRIS expression in ovarian cells (Western analysis). The settings on record: 10, 20 or 30 μM of cisplatin for 24 hours. In kind it is cell-based, human. From the text:
At these low concentrations of cisplatin BRCA1-IRIS expression was induced in HOSE cells and remained high in HOSE/IRIS cells (FIG. 17). […] Cell lines expressing the lowest levels of BRCA1-IRIS (i.e.

A further assay deals with BRCA1-IRIS and survivin. Put plainly: IHC of SKOV3 tumors for BRCA1-IRIS and survivin. It counts as in vivo, mice. The settings on record: SKOV3 tumors after treatment. An excerpt: Isolated tumors were mounted, sectioned and IHC stained for BRCA1-IRIS and survivin. […] It is possible that SKOV3 contain a heterogeneous population of cells that differ in their BRCA1-IRIS expression and thus that the remaining tumors are from those expressing no or low BRCA1-IRIS.
Immunohistochemistry (IHC). Ovarian tissue microarrays comprised of normal, cancer and metastatic tissues were purchased from US Biomax, Inc. Paraffin-embedded tissue sections were de-waxed in xylene and rehydrated in alcohol. Antigen-retrieval for FOXO3a and survivin was performed by heating the slides in citrate buffer (10 μM, pH 6.0) using microwave for 10 minutes. Slides were then cooled to room temperature (RT) and washed with water followed by PBS for 15 minutes each. Antigen-retrieval for BRCA1-IRIS was performed by incubating the slides in pepsin (10 μM) for 20 minutes at 37° C. Endogenous peroxidase activity was suppressed by treating the slides with 3% hydrogen peroxide for 10 minutes. After washing steps slides were incubated for 1 hour at room temperature with antibodies to human FOXO3a (Cell Signaling Technology, USA 1:400) and survivin (Cell Signaling Technology, USA 1:400). For BRCA1-IRIS staining, slides were incubated overnight at 4° C. with monoclonal BRCA1-IRIS antibody at a 1:75 dilution. […]

A further assay has as its system SKOV3 cells. It counts as cell-based, human. The following applies: then cisplatin 24 hours, read-out: IC50 of cisplatin (survival). The protocol:
Thus, a peptide (hereafter IRIS peptide) composed of a cell/nucleus penetrating signal (FIG. 26) fused to BRCA1-IRIS intron 11 (FIG. 26) was synthesized. Equal numbers of HOSE, HOSE/IRIS, SKOV3, OVCAR3, OVCAR420 and OV-90 cells were grown in the presence of increasing concentrations of IRIS peptide for 48 hours.
To investigate the contribution of ErbB2 and TrkB to BRCA1-IRIS-induced cisplatin resistance, equal numbers of SKOV3 cells were either depleted from BRCA1-IRIS, ErbB2 or TrkB using specific siRNAs for 48 hours before they were (i) exposed to increasing concentrations of cisplatin for another 24 hours or (ii) exposed to IRIS peptide, ErbB2 inhibitor (CP-724714), TrkB inhibitor (K252a) or both for 24 hours, before they were exposed to increasing concentrations of cisplatin for another 24 hours.
Cell viability measurement. Cell viability under different experimental conditions was determined using the MTS assay […]. Briefly, SKOV3, OVACAR3, HOSE and HOSE/IRIS cells (2.5×10^4 cells per well) were seeded in 96 well plates and incubated overnight at 37° C. in 10% humidified CO2 atmosphere in varying concentrations of IRIS peptide, or inhibitors of ErbB2 (CP-724714), EGFR (Erlotinib), TrkB (K252a), JNK (SP600125), p38 (SB203580), ERK (PD98059) and PI3′K/AKT (LY294002) inhibitors for 24 hours at 37° C. Cell Titer 96® Aqueous (Promega, Madison, Wis., USA) was used to measure viability following manufactures instructions. Cell viability (%) was expressed as a ratio to control cells×100. Growth inhibition was also determined by manually counting cells in five different microscopic fields. Change in cell numbers (fold) was expressed as a ratio to control cells×100. All experiments were done in at least triplicates, three different times. * is p≦0.05, ** is p≦0.001 and *** is p≦0.0001.
Transfections of siRNA. siRNAs for human ErbB2 and TrkB were purchased from Ambion and Santa Cruz Biotechnology, USA. Custom synthesized siRNA against BRCA1 IRIS was used. siRNA against luciferase gene was used as the negative control. Sub-confluent cells were transfected in 6- or 96-well plates with ErbB2 (100 nM), TrkB (100 nM), BRCA1 IRIS (200 nM) or control siRNA using Oligofectamine™ reagent (GibcoBRL Inc, USA) following the instructions of the manufacturer. Protein expression was tested by Western blot after 72 hours of siRNA transfection. Cell viability was evaluated by MTS or by manual counting after 72 hours of siRNA exposure alone or in combination with cisplatin exposure (for an additional 24 hours).

In another assay the test system is SKOV3 tumors. As to the kind of experiment: In vivo efficacy on established SKOV3 tumors. Set-up: species or system mice. The settings on record: day 16; cisplatin 5 mg/kg i.p., IRIS peptide 10 mg/kg i.t., every third day, four times. The protocol:
Further, to determine whether IRIS peptide could have any efficacy in vivo and/or whether it sensitizes ovarian tumors to low, clinically relevant concentrations of cisplatin, four sets of nude mice (n=6 each) were subcutaneously injected with SKOV3 cells. Ten days later, when tumors were ˜250 mm^3 in volume, one group was treated with controls (i.e. DMSO delivered i.p. and scrambled peptide delivered directly into the tumors, i.t.), a second group was treated with cisplatin (5 mg/kg, delivered i.p.), a third group was treated with IRIS peptide (10 mg/kg, injected i.t.), and a fourth group was treated with both. Treatments were delivered every third day for a total of four times. For the next 16 days, tumors were measured daily with a caliper. Mice were then sacrificed, and their tumors or their remnants were taken.
Efficacy of BRCA1-IRIS inhibitory peptide, in vivo. Six to eight week old female athymic SCID mice were injected subcutaneously with 2.5×10^6 SKOV3 cells in the flank region. Their respective tumor growth was measured with a caliper. When the tumor volume reached 250 mm^3, mice were randomly grouped into four groups. One group (control) was treated with scrambled peptide (10 mg/kg) and DMSO. A second was treated with BRCA1-IRIS inhibitory peptide (10 mg/kg, body weight). […] Change in tumor volume was measured to monitor the efficacy of the treatment. […]

The subject of assay [1] is BRCA1-IRIS, TrkB, ErbB2, AKT, p-AKT, p-FOXO, Cyclin D1, Bcl-2 and survivin. Put plainly: Expression of growth and survival proteins in HOSE and HOSE/IRIS cells (Western). In kind it is cell-based, human. The following applies: IRIS peptide 5 μM, cisplatin 10 μM, combination 2.5 μM IRIS peptide + 5 μM cisplatin. From the text:
HOSE cells overexpressing IRIS show a higher degree of resistance to cisplatin than HOSE cells (compare blue to black line in FIG. 30).

Molecules are shown by their SMILES. Like-named read-outs stand apart in the source and are kept apart here.

As a reminder, the IC50 is the concentration that gives 50% inhibition. As for `N.N.[Cl][Pt][Cl]` [cisplatin], in the assay with BRCA1-IRIS, the “BRCA1-IRIS expression in HOSE cells” value is given as “induced”. Moreover, the “BRCA1-IRIS and survivin staining of remaining tumor” value in the assay with BRCA1-IRIS and survivin is “increased IRIS and survivin expression”. In addition, the IC50 in the assay on SKOV3 cells (SKOV3, BRCA1-IRIS silencing (siRNA) 48 hours) is approximately 2.5 µM; in the assay on SKOV3 cells (SKOV3, ErbB2 inhibitor (CP-724714) 24 hours) it was approximately 30 µM; in the assay with SKOV3 cells (SKOV3, IRIS peptide 24 hours), approximately 7.5 µM; in the assay on SKOV3 cells (SKOV3, TrkB inhibitor (K252a) 24 hours), approximately 50 µM; in the assay with SKOV3 cells (SKOV3, siErbB2 transfected 48 hours), approximately 7.5 µM; in the assay on SKOV3 cells (SKOV3, siLuc transfected 48 hours), more than 50 µM. Moreover, the IC50 in the assay on SKOV3 cells (SKOV3, siTrkB transfected 48 hours) was approximately 20 µM; in the assay on SKOV3 cells (SKOV3, vehicle treated 24 hours) it was more than 50 µM. Besides, the “reduction in tumor size” value with SKOV3 tumors was approximately 40%. Further, in assay [1], the “expression of BRCA1-IRIS, TrkB, ErbB2, AKT, p-AKT, p-FOXO, Cyclin D1, Bcl-2 and survivin” value was “increased expression”.
